Experimental data from PMC3538727, “Design, Synthesis and Biological Evaluation of Novel Piperazine Derivatives as CCR5 Antagonists” (PLoS ONE, 2013).
Entries after “also recorded” stand apart in the source; their conditions may differ. Like-named read-outs stand apart in the source and are kept apart here.

Assays:
[1] = tested on: recombinant HIV-1 virus pseudotyped with the envelope proteins of the CCR5-tropic virus; assay: microbe, parasite or virus in culture; format: cell-based; conditions: for inhibition at 10 µM: Human immunodeficiency virus 1, SUP-T1, read-out: inhibition rate (10 µM), antiviral activity
Protocol: Fluorophenyl analogs 9e–g, phenyl, chlorophenyl, and trifluorophenyl analog 23a–c, and cyclohexyl analog 23 h were evaluated for their anti-HIV activity using a recombinant HIV-1 virus pseudotyped with the envelope proteins of the CCR5-tropic virus (HIV-1 single cycle antiviral assay). For overall estimation of the therapeutic potential of these novel CCR5 antagonists, maraviroc was used as a positive control.
HIV-1 proviral indicator construct pNL-Luc-E- contains a full-length HIV-1 genome, in which env was replaced by firefly Luciferase coding sequence. pENV-Ad8 expresses R5-tropic envelope (AD8).
Single-cycle HIV-1 replication assays were performed as described previously. In brief, 4×10^5 293T cells were co-transfected with 0.4 µg of pNL-Luc-E- and 0.4 µg of pENV-R5. After 48h, the supernatant containing pseudovirion was harvested by filtration through a 0.45 µm filter and the amount of viral capsid protein was measured by p24 antigen capture ELISA (Biomerieux). The resultant supernatant (10 µL) was used to infect SupT1 cells (1×10^5) in 96-well plates in the presence of testing compound at the concentration indicated. The SupT1 cells were lysed 48h post-infection and firefly luciferase activities were determined using a firefly Luciferase Assay System (Promega). Values were normalized to the control group treated with DMSO, and represented relative infectivity of each sample testing.

[2] = target: T1, CCR5 (Homo sapiens, UniProt P51681); assay: Cell-cell fusion assay (CCF assay, CCR5-mediated fusion); format: cell-based; conditions: for IC50 / inhibition rate (10 µM), CCR5 fusion activity / inhibition at 10 µM: mean of at least two experiments, DMSO as negative control; for fold loss of CCR5 fusion potency in comparison to 9e: relative to 9e; for inhibition at 10 µM: CCR5, read-out: inhibition rate (10 µM), CCR5 fusion activity
T1 construct: expressed in transfected cells
Description: A total of 21 novel piperazine derivatives 9a–h, 13a–d, 17, and 23a–h were screened for their inhibitory activity against cell-cell fusion between target cells expressing CD4/CCR5 and effector cells expressing the envelope protein of HIV-1, gp-120 (fusion assay).
Effector cell line: This cell line express HIV envelope protein gp160 and chimera protein Rn-Dn. Rn-Dn is consist of the N terminal of renilla luciferase and the N terminal of DnaE intein from Anacystis nidulans R2 PCC7942.
Target cell line: This cell line express chemokine receptor 5(CCR5), CD4 protein and chimera protein Dc-Rc. Dc-Rc is consist of the C teminal of renilla luceferase and the C teminal of NnaE intein from Anacystis nidulans R2 PCC7942.
The cell-cell fusion assay was performed as described previously.The effector cells were plated in 24 well white culture plates at 7.5×10^4 cell per well in DMEM supplemented with 10% FBS, 800 µg/mL G418. The target cells in the growth medium were then added to the plates at 7.5×10^4 cells/50 µL/well and incubated for 5 hours. At the end of coculture, 70 µL of renilla luceferase assay lysis was added into each well, and the cultures were gently shaken for 15 min. At the same time, add 20 µl of Renilla Luciferase Assay Reagent to the luminometer tube. Add 20 µl of cell lysate to the tube. Mix quickly by flicking the tube for 1 second. Place the tube in FB12 luminometer and initiate measurement. Luminescence was integrated over 1 second with a 2-second delay. When small molecule compounds needed to be added to the CCF assay system, the compounds were diluted manually in DMSO. Then, 10 µL of the diluted compounds was added to the effector cells just before the addition of target cells, thus making the final concentration of DMSO in the coculture 0.5%.

[3] = mean of two experiments, DMSO as negative control

T1 sequence (P51681 whole entry, the tested form may be a part): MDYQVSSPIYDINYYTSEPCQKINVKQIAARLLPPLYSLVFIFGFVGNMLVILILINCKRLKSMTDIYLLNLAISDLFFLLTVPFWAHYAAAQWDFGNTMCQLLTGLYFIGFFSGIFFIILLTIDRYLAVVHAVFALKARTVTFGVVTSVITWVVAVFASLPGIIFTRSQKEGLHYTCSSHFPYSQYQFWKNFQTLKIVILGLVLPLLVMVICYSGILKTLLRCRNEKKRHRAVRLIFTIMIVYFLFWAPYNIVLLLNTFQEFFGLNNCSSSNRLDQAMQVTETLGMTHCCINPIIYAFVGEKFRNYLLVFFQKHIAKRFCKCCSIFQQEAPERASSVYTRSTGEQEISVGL

melting point	inhibition at 10 µM [2]	Compound	IC50 [2]	further results
115 to 119 °C	–	N#CCc1ccc(N2CCN(CCC(NC(=O)c3ccc(F)cc3)c3ccccc3)CC2)cc1 (centres unmarked) [Compound 13a]	–	inhibition rate (10 µM), CCR5 fusion activity [2]: inactive
80 to 84 °C	22%	N#Cc1ccc(C(=O)N2CCN(CCC(NC(=O)c3ccc(F)cc3)c3ccccc3)CC2)cc1 (centres unmarked) [Compound 13b]	–	–
83 to 87 °C	–	N#Cc1ccc(CN2CCN(CCC(NC(=O)c3ccc(F)cc3)c3ccccc3)CC2)cc1 (centres unmarked) [Compound 13c]	–	inhibition rate (10 µM), CCR5 fusion activity [2]: inactive
100 to 105 °C	–	CC(=O)N1CCC(C(=O)NC(CCN2CCN(c3ccc(C#N)cc3)CC2)c2ccccc2)CC1 (centres unmarked) [Compound 23e]	–	inhibition rate (10 µM), CCR5 fusion activity [2]: complete loss in fusion activity; also recorded: inactive
155 to 158 °C	20%	CC(C)c1ccc(C(=O)NC(CCN2CCN(c3ccc(C#N)cc3)CC2)c2ccccc2)cc1 (centres unmarked) [Compound 23d]	–	–
132 to 136 °C	–	N#Cc1ccc(N2CCN(CCC(NC(=O)c3ccco3)c3ccccc3)CC2)cc1 (centres unmarked) [Compound 23g]	–	inhibition rate (10 µM), CCR5 fusion activity [2]: inactive
121 to 124 °C	15%	N#Cc1ccc(N2CCN(CCC(NC(=O)C3CCN(C(=O)c4ccccc4)CC3)c3ccccc3)CC2)cc1 (centres unmarked) [Compound 23f]	–	–
98 to 102 °C	25%	N#Cc1ccc(N2CCN(C(=O)CC(NC(=O)c3ccc(F)cc3)c3ccccc3)CC2)cc1 (centres unmarked) [Compound 13d, N-(3-(4-(4-cyanophenyl)piperazin-1-yl)-3-oxo-1-phenylpropyl)-4-fluoro-benzamide]	–	–

Continued, compound first:

Compound	melting point	inhibition at 10 µM [2]	IC50 [2]	further results
N#Cc1ccc(N2CCN(CCC(NC(=O)c3ccccc3)c3ccccc3)CC2)cc1 (centres unmarked) [Compound 23a]	152 to 155 °C	–	2.44 µM	inhibition at 10 µM [1]: 28.9%; fold loss of CCR5 fusion potency in comparison to 9e [2]: 4 fold
N#Cc1ccc(N2CCN(CCC(NC(=O)C3CCCCC3)c3ccccc3)CC2)cc1 (centres unmarked) [Compound 23h]	–	–	6.29 µM	IC50 ([1]; Human immunodeficiency virus 1, SUP-T1, read-out: IC50 (µM), antiviral activity): 0.44 µM; inhibition at 10 µM [1]: 66.5%
maraviroc [reference compound]	–	–	–	inhibition rate (10 µM), antiviral activity [1, 3]: 96.8%; IC50 ([1]; read-out: IC50 (µM), antiviral activity, mean of two experiments, DMSO as negative control): 0.0011 µM
O=C(NC(CCN1CCN(c2ccc(F)cc2)CC1)c1ccccc1)c1ccc(F)cc1 (centres unmarked) [Compound 9c]	157 to 159 °C	41%	–	–
N#Cc1ccc(N2CCN(CCC(NC(=O)c3ccc(C(F)(F)F)cc3)c3ccccc3)CC2)cc1 (centres unmarked) [Compound 23c]	158 to 160 °C	–	10 µM	inhibition at 10 µM [1]: 24.6%; fold loss of CCR5 fusion potency in comparison to 9e [2]: 15 fold
NC(=O)c1ccc(N2CCN(CCC(NC(=O)c3ccc(F)cc3)c3ccccc3)CC2)cc1 (centres unmarked) [Compound 9h]	–	20%	–	–
N#Cc1ccc(N2CCN(CCC(NC(=O)c3ccc(F)cc3)c3ccc(Cl)c(Cl)c3)CC2)cc1 (centres unmarked) [Compound 9g]	85 to 88 °C	–	10 µM	inhibition at 10 µM [1]: 2.9%; fold loss of CCR5 fusion potency in comparison to 9e [2]: more than 15 fold
N#Cc1ccc(N2CCN(CCC(NC(=O)c3ccc(F)cc3)c3ccc(Cl)cc3)CC2)cc1 (centres unmarked) [Compound 9f]	121 to 123 °C	–	3.7 µM	inhibition rate (10 µM), antiviral activity [1, 3]: inactive; fold loss of CCR5 fusion potency in comparison to 9e [2]: 5 fold
Cc1ccc(N2CCN(CCC(NC(=O)c3ccccc3)c3ccccc3)CC2)cc1 (centres unmarked) [Compound 9a]	165 to 167 °C	47%	–	–
N#Cc1ccc(N2CCN(CCC(NC(=O)c3ccc(Cl)cc3)c3ccccc3)CC2)cc1 (centres unmarked) [Compound 23b]	143 to 145 °C	–	2.87 µM	inhibition at 10 µM [1]: 29.9%; fold loss of CCR5 fusion potency in comparison to 9e [2]: 5 fold
Cc1ccc(N2CCN(CCC(NC(=O)c3ccc(F)cc3)c3ccccc3)CC2)cc1 (centres unmarked) [Compound 9b]	171 to 173 °C	35%	–	–
N#Cc1ccc(N2CCN(CCCN(C(=O)c3ccc(F)cc3)c3ccccc3)CC2)cc1 [Compound 17, N-(3-(4-(4-cyanophenyl)piperazin-1-yl)propyl)-4-fluoro-N-phenylbenzamide]	82 to 84 °C	–	–	inhibition rate (10 µM), CCR5 fusion activity [2]: inactive
N#Cc1ccc(N2CCN(CCC(NC(=O)c3ccc(F)cc3)c3ccccc3)CC2)cc1 (centres unmarked) [Compound 9e]	160 to 162 °C	–	0.64 µM	inhibition rate (10 µM), antiviral activity [1, 3]: weak anti-HIV activity; inhibition at 10 µM [1]: 23.8%
O=C(NC(CCN1CCN(c2ccc(F)cc2)CC1)c1ccccc1)c1ccccc1 (centres unmarked) [Compound 9d]	152 to 154 °C	26%	–	–
